From ChEMBL document CHEMBL4651402, “Screening of ~5500 FDA-approved drugs and clinical candidates for anti-SARS-CoV-2 activity” (2021)

System: SARS-CoV-2
Assay: microbe, parasite or virus in culture
Settings: Severe acute respiratory syndrome coronavirus 2, Vero C1008, 48 h

Row | Compound | IC50 | IC50 (read-out: pIC50 (converted))
1 | C=CCOC(Cn1ccnc1)c1ccc(Cl)cc1Cl (stereo not drawn) [ENILCONAZOLE] | > 20 µM | > 20 µM
2 | Cc1cc(Nc2cc(N3CCN(C)CC3)nc(/C=C/c3ccccc3)n2)n[nH]1 [ENMD-2076] | > 20 µM | > 20 µM
3 | O=C(Nc1ccc(Cl)c(Cl)c1)C1=C(O)c2cc(Cl)ccc2S(=O)(=O)CC1 [ENOLICAM] | > 20 µM | > 20 µM
4 | CCn1cc(C(=O)O)c(=O)c2cc(F)c(N3CCNCC3)nc21 [ENOXACIN] | > 20 µM | > 20 µM
5 | CSc1ccc(C(=O)c2[nH]c(=O)[nH]c2C)cc1 [ENOXIMONE] | > 20 µM | > 20 µM
6 | CCN1CCN(c2cc3c(cc2F)c(=O)c(C(=O)O)cn3C2CC2)CC1 [ENROFLOXACIN] | > 20 µM | > 20 µM
7 | O=S(=O)(O)c1ccc2[nH]c(-c3ccccc3)nc2c1 [ENSULIZOLE] | > 20 µM | > 20 µM
8 | CCN(CC)C(=O)/C(C#N)=C/c1cc(O)c(O)c([N+](=O)[O-])c1 [ENTACAPONE] | > 20 µM | > 20 µM
9 | Nc1ccccc1NC(=O)c1ccc(CNC(=O)OCc2cccnc2)cc1 [ENTINOSTAT] | > 20 µM | > 20 µM
10 | c1cn2cc(-c3ccc4cn[nH]c4c3)nc(Nc3ccc(N4CCOCC4)cc3)c2n1 [ENTOSPLETINIB] | > 20 µM | > 20 µM
11 | CNC(=O)c1ccc(N2C(=S)N(c3ccc(C#N)c(C(F)(F)F)c3)C(=O)C2(C)C)cc1F [ENZALUTAMIDE] | > 20 µM | > 20 µM
12 | Cn1cc(C2=C(c3cn(C4CCN(Cc5ccccn5)CC4)c4ccccc34)C(=O)NC2=O)c2ccccc21 [ENZASTAURIN] | > 20 µM | > 20 µM
13 | NS(=O)(=O)NCCNc1nonc1/C(=N/O)Nc1ccc(F)c(Br)c1 [EPACADOSTAT] | > 20 µM | > 20 µM
14 | CCc1ccc(C(=O)C(C)CN2CCCCC2)cc1 (stereo not drawn) [EPERISONE] | > 20 µM | > 20 µM
15 | CN[C@@H](C)[C@H](O)c1ccccc1 [EPHEDRINE] | > 20 µM | > 20 µM
16 | NC1=NCC2c3ccccc3Cc3ccccc3N12 (stereo not drawn) [EPINASTINE] | > 20 µM | > 20 µM
17 | COc1cc(C)nc(-n2nc(C)cc2OC)n1 [EPIRIZOLE] | > 20 µM | > 20 µM
18 | C[C@]12C[C@H]3S[C@H]3C[C@@H]1CC[C@@H]1[C@@H]2CC[C@]2(C)[C@@H](O)CC[C@@H]12 [EPITIOSTANOL] | > 20 µM | > 20 µM
19 | CN(C)CCO/N=C(/C=C/c1ccc(O)cc1)c1ccccc1F [EPLIVANSERIN] | > 20 µM | > 20 µM
20 | CC1(C)OC2(C)C(O)CC1CC2O (stereo not drawn) [EPOMEDIOL] | > 20 µM | > 20 µM
21 | CCCCC[C@H](O)/C=C/[C@@H]1[C@H]2C/C(=C/CCCC(=O)O)O[C@H]2C[C@H]1O [EPOPROSTENOL] | > 20 µM | > 20 µM
22 | C[C@]1(O)CC[C@H]2[C@@H]3CC[C@@]45O[C@]4(C)C(O)=C(C#N)C[C@]5(C)[C@H]3CC[C@@]21C [EPOSTANE] | > 20 µM | > 20 µM
23 | C/C1=C/C[C@@H](/C(C)=C/c2csc(C)n2)OC(=O)C[C@H](O)C(C)(C)C(=O)[C@H](C)[C@@H](O)[C@@H](C)CCC1 [EPOTHILONE D] | > 20 µM | > 20 µM

Row | Compound | IC50 | IC50 (read-out: pIC50 (converted))
24 | O=C(NCCCN1CCOCC1)c1ccc(Cl)cc1 [EPROBEMIDE] | > 20 µM | > 20 µM
25 | C[C@]12CC[C@H]3C(=CCc4cc(O)ccc43)[C@@H]1CCC2=O [EQUILIN] | > 20 µM | > 20 µM
26 | CC(C)C[C@H]1C(=O)N2CCC[C@H]2[C@]2(O)O[C@](NC(=O)[C@@H]3C=C4c5cccc6[nH]cc(c56)C[C@H]4N(C)C3)(C(C)C)C(=O)N12 [ERGOCRYPTINE] | > 20 µM | > 20 µM
27 | C[C@@H](CO)NC(=O)[C@@H]1C=C2c3cccc4[nH]cc(c34)C[C@H]2N(C)C1 [ERGONOVINE] | > 20 µM | > 20 µM
28 | CN1C[C@H](C(=O)N[C@]2(C)O[C@@]3(O)[C@@H]4CCCN4C(=O)[C@H](Cc4ccccc4)N3C2=O)C=C2c3cccc4[nH]cc(c34)C[C@H]21 [ERGOTAMINE] | > 20 µM | > 20 µM
29 | C#Cc1cccc(Nc2ncnc3cc(OCCOC)c(OCCOC)cc23)c1 [ERLOTINIB] | > 20 µM | > 20 µM
30 | CCOc1ccc(Cc2cc([C@]34OC[C@](CO)(O3)[C@@H](O)[C@H](O)[C@H]4O)ccc2Cl)cc1 [ERTUGLIFLOZIN] | > 20 µM | > 20 µM
31 | CCOC(=O)CCC(=O)O[C@H]1[C@H](O[C@@H]2[C@@H](C)[C@H](O[C@H]3C[C@@](C)(OC)[C@@H](O)[C@H](C)O3)[C@@H](C)C(=O)O[C@H](CC)[C@@](C)(O)[C@H](O)[C@@H](C)C(=O)[C@H](C)C[C@@]2(C)O)O[C@H](C)C[C@@H]1N(C)C [ERYTHROMYCIN ETHYLSUCCINATE] | > 20 µM | > 20 µM
32 | CC[C@H]1OC(=O)[C@H](C)[C@@H](O[C@H]2C[C@@](C)(OC)[C@@H](O)[C@H](C)O2)[C@H](C)[C@@H](O[C@@H]2O[C@H](C)C[C@H](N(C)C)[C@H]2O)[C@](C)(O)C[C@@H](C)C(=O)[C@H](C)[C@@H](O)[C@]1(C)O [ERYTHROMYCIN] | > 20 µM | > 20 µM
33 | O=C(CN1CCNCC1)NC1CCCCC1 [ESAPRAZOLE] | > 20 µM | > 20 µM
34 | CC(C)NC[C@H](O)COc1ccc(CC(N)=O)cc1 [ESATENOLOL] | > 20 µM | > 20 µM
35 | CN(C)CCC[C@@]1(c2ccc(F)cc2)OCc2cc(C#N)ccc21 [ESCITALOPRAM] | > 20 µM | > 20 µM
36 | O=c1ccc2cc(O[C@@H]3O[C@H](CO)[C@@H](O)[C@H](O)[C@H]3O)c(O)cc2o1 [ESCULIN] | > 20 µM | > 20 µM
37 | COC(=O)CCc1ccc(OCC(O)CNC(C)C)cc1 (stereo not drawn) [ESMOLOL] | > 20 µM | > 20 µM
38 | COc1ccc2[nH]c([S@@+]([O-])Cc3ncc(C)c(OC)c3C)nc2c1 [ESOMEPRAZOLE] | > 20 µM | > 20 µM
39 | CCN(CC)CC#CCOC(=O)[C@@](O)(c1ccccc1)C1CCCCC1 [ESOXYBUTYNIN] | > 20 µM | > 20 µM
40 | C[C@]12CC[C@@H]3c4ccc(O)cc4CC[C@H]3[C@@H]1CC[C@@H]2OC(=O)CCC1CCCC1 [ESTRADIOL CYPIONATE] | > 20 µM | > 20 µM
41 | C[C@]12CC[C@@H]3c4ccc(O)cc4CC[C@H]3[C@@H]1CC[C@@H]2O [ESTRADIOL] | > 20 µM | > 20 µM
42 | C=CCc1ccc(OC)cc1 [ESTRAGOLE] | > 20 µM | > 20 µM
43 | C[C@]12CC[C@@H]3c4ccc(O)cc4CC[C@H]3[C@@H]1C[C@@H](O)[C@@H]2O [ESTRIOL] | > 20 µM | > 20 µM
44 | C[C@]12CC[C@@H]3c4ccc(OS(=O)(=O)O)cc4CC[C@H]3[C@@H]1CCC2=O [ESTRONE SULFURIC ACID] | > 20 µM | > 20 µM
45 | C[C@]12CC[C@@H]3c4ccc(O)cc4CC[C@H]3[C@@H]1CCC2=O [ESTRONE] | > 20 µM | > 20 µM
46 | CCN(CC)CCOc1ccccc1C(=O)CCc1ccccc1 [ETAFENONE] | > 20 µM | > 20 µM

Row | Compound | IC50 | IC50 (read-out: pIC50 (converted))
47 | O=C(Cn1ccnc1[N+](=O)[O-])NCCO [ETANIDAZOLE] | > 20 µM | > 20 µM
48 | CCc1ccccc1-n1c(C)nc2ccccc2c1=O [ETAQUALONE] | > 25.1 µM | > 25.1 µM
49 | CCOC(=O)c1cnc2c(cnn2CC)c1NN=C(C)C [ETAZOLATE] | > 20 µM | > 20 µM
50 | CCC1(c2ccccc2)C(=O)N(COC)C(=O)N(COC)C1=O [ETEROBARB] | > 20 µM | > 20 µM
51 | CCOC(=O)Nc1ccc2c(c1)N(C(=O)CCN(CC)CC)c1ccccc1S2 [ETHACIZINE] | > 20 µM | > 20 µM
52 | C=C(CC)C(=O)c1ccc(OCC(=O)O)c(Cl)c1Cl [ETHACRYNIC ACID] | > 20 µM | > 20 µM
53 | CCN1C(=O)OC(C)(C)C1=O [ETHADIONE] | > 20 µM | > 20 µM
54 | CC[C@@H](CO)NCCN[C@@H](CC)CO [ETHAMBUTOL] | > 20 µM | > 20 µM
55 | CCOc1ccc(Cc2nccc3cc(OCC)c(OCC)cc23)cc1OCC [ETHAVERINE] | > 20 µM | > 20 µM
56 | CCOc1ccccc1C(N)=O [ETHENZAMIDE] | > 20 µM | > 20 µM
57 | C#C[C@]1(O)CC[C@H]2[C@@H]3CCc4cc(O)ccc4[C@H]3CC[C@@]21C [ETHINYL ESTRADIOL] | > 20 µM | > 20 µM
58 | CCc1cc(C(N)=S)ccn1 [ETHIONAMIDE] | > 20 µM | > 20 µM
59 | C#C[C@]1(O)CC[C@H]2[C@@H]3CCC4=CC(=O)CC[C@]4(C)[C@H]3CC[C@@]21C [ETHISTERONE] | > 20 µM | > 20 µM
60 | CCOC(=O)C1(c2ccccc2)CCCN(C)CC1 (stereo not drawn) [ETHOHEPTAZINE] | > 20 µM | > 20 µM
61 | CCN(CC)C(C)CN1c2ccccc2Sc2ccccc21 (stereo not drawn) [ETHOPROPAZINE] | > 20 µM | > 20 µM
62 | CCC1(C)CC(=O)NC1=O (stereo not drawn) [ETHOSUXIMIDE] | > 20 µM | > 20 µM
63 | CCN1C(=O)NC(c2ccccc2)C1=O (stereo not drawn) [ETHOTOIN] | > 20 µM | > 20 µM
64 | CCOc1ccc(/N=N/c2ccc(N)cc2N)cc1 [ETHOXAZENE] | > 20 µM | > 20 µM
65 | CCN1[C@@H]2CC[C@H]1C[C@@H](OC(c1ccccc1)c1ccccc1)C2 [ETHYBENZTROPINE] | > 20 µM | > 20 µM
66 | CCOc1ccc2nccc([C@@H](O)[C@@H]3C[C@@H]4CCN3C[C@@H]4CC)c2c1 [ETHYLHYDROCUPREINE] | > 20 µM | > 20 µM
67 | CCOc1ccc2c3c1O[C@H]1[C@@H](O)C=C[C@H]4[C@@H](C2)N(C)CC[C@@]341 [ETHYLMORPHINE] | > 20 µM | > 20 µM
68 | CCC(N)C(O)c1ccc(O)c(O)c1 (stereo not drawn) [ETHYLNOREPINEPHRINE] | > 20 µM | > 20 µM
69 | CCOC(=O)c1ccc(O)cc1 [ETHYLPARABEN] | > 20 µM | > 20 µM
